Experiment: Compound was evaluated for inhibitory activity against Isoleucyl-tRNA synthetase

IC50 [nM] | SMILES
300 | CCCCS(=O)(=O)N[C@H]1CO[C@@H](C/C=C/C(=O)OCCCCCCCCC(=O)OC)[C@H](O)[C@@H]1O [9-{(E)-4-[(2S,3R,4R,5S)-5-(Butane-1-sulfonylamino)-3,4-dihydroxy-tetrahydro-pyran-2-yl]-but-2-enoyloxy}-nonanoic acid methyl ester]
100 | COC(=O)CCCCCCCCOC(=O)/C=C/C[C@@H]1OC[C@H](NS(=O)(=O)CCCCl)[C@@H](O)[C@H]1O [9-{(E)-4-[(2S,3R,4R,5S)-5-(3-Chloro-propane-1-sulfonylamino)-3,4-dihydroxy-tetrahydro-pyran-2-yl]-but-2-enoyloxy}-nonanoic acid methyl ester]
300 | COC(=O)CCCCCCCCOC(=O)/C=C/C[C@@H]1OC[C@H](NS(=O)(=O)c2cccc(Cl)c2)[C@@H](O)[C@H]1O [9-{(E)-4-[(2S,3R,4R,5S)-5-(3-Chloro-benzenesulfonylamino)-3,4-dihydroxy-tetrahydro-pyran-2-yl]-but-2-enoyloxy}-nonanoic acid methyl ester]
